The test concerns uterus of infant rats. The test is described as follows: Anti-uterus growth test in infant rats (antiestrogenic action). The format is in vivo, rat. The note with it: with 0.3 μg/animal/day 17β-estradiol. The source says:
The influence of the compounds according to the invention on the uterus was examined in the uterus growth test (estrogenic action) and in the anti-uterus growth test (antiestrogenic action), both performed on infant rats.
The uterus of infant estrogen-substituted rats can be used as a test model to detect a direct action of substances with antiestrogenic properties. The parameter of the estrogenic action is the uterus growth that is induced by estradiol in infant rats and that is inhibited by simultaneous administration of a substance with antiestrogenic action.
The test substances are treated s.c. on 3 successive days (d1-d3) in combination with a substitution dose of 0.3 μg/animal/day of 17β-estradiol. As a positive control, 17β-estradiol alone is used; the vehicle group is used as a negative control. On day 4 (d4), the animals are sacrificed, uteri and vaginae are prepared outside and weighed. The organ weights are converted into mg/100 g of body weight, and then the mean and the standard deviation for each dosage are calculated. The inhibition of the uterus or vaginal growth that is induced by 17β-estradiol is indicated in % as inhibition.

For the molecule `C[C@]12C[C@H](c3ccc(OCCCCCS(=O)(=O)Cc4ccccn4)cc3)[C@@H]3c4ccc(O)cc4CC[C@H]3[C@]13CC[C@@]2(O)CC3` [Compound A], the “Uterus Weight % of Inhibition” value runs as follows: (0.1 mg/kg s.c.) 33%; (1 mg/kg s.c.) 88%; (10 mg/kg s.c.) 121%.

(Values after patent US6229029A, “11β-aryl substituted 14,17-ethanoestratriens, method for the production of these compounds and their use in the production of medicaments” (Schering Aktiengesellschaft, priority 1997, dated 2001).)
